Data as given in patent publication US20230190713A1 (priority 2020, published 2023).
pEC50: −log10 of the molar value. “And” between values parts separate entries of the source, which are not always exact repeats. Equal entries are not always repeated. “Also recorded” adds a separate entry of the source. Where two headings read alike, the source gives them in different places.

How the values were obtained:
[1] = system: 2019-nCoV (2019BetaCoV/Wuhan/WIV04/2019 strain); assay: microbe, parasite or virus in culture; type: cell-based; conditions: for EC50: Severe acute respiratory syndrome coronavirus 2, Vero C1008, read-out: 2019-nCoV EC50 (µM)
[2] = system: Ebola virus replicon; assay: microbe, parasite or virus in culture; type: cell-based; conditions: Zaire ebolavirus; for EC50: BSR-T7/5, read-out: Ebola virus EC50 (µM)
[3] = system: avian influenza virus A/GuangZhou/99 (H9N2); assay: organism not typed; type: cell-based; conditions: for EC50: read-out: A/GuangZhou/99(H9N2) EC50 (µM)
[4] = system: 2019-nCoV, Ebola virus, and avian influenza virus A/GuangZhou/99 (H9N2); assay: organism not typed; type: cell-based; conditions: read-out: EC50 values (level reached)
[5] = system: A/WSN/33(H1N1) virus; parameters: species or system BALB/c female mice; conditions: mouse, in vivo
[6] = system: 2019-nCoV, Ebola virus, avian influenza virus A/GuangZhou/99 (H9N2); type: cell-based
[7] = system: 2019-nCoV; parameters: species or system K18-hACE male mice; conditions: mouse, in vivo
[8] = in vitro; conditions: Syrian hamster
[9] = system: 2019-nCoV; parameters: species or system Syrian hamster; conditions: hamster, in vivo
[10] = Severe acute respiratory syndrome coronavirus 2, Vero C1008, 48 h
[11] = Severe acute respiratory syndrome coronavirus 2, Vero C1008, read-out: concentration at which replication efficiency of 2019-nCoV is inhibited by 50%
[12] = BSR-T7/5, read-out: concentration at which replication efficiency of Ebola replicon is inhibited by 50%
[13] = unidentified influenza virus, H9N2, MDCK, read-out: concentration at which replication efficiency of avian influenza virus H9N2 is inhibited by 50%

SMILES	EC50 [1] [µM]	EC50 [2] [µM]	EC50 ([3]; MDCK) [µM]	further results
CC(C)N(/N=C/c1ccccc1C(=O)O)c1nc(-c2ccccc2Cl)cs1 [Compound 4]	10.2	5.35	8.37	–
Cc1ccc(/C=N/Nc2nc(-c3ccccc3Cl)cs2)c(C(=O)O)c1 [Compound 9-1]	0.07	0.89	0.33	–
CN(/N=C/c1ccc(F)cc1C(=O)O)c1nc(-c2ccccc2Cl)cs1 [Compound 10]	0.1	0.32	3.2	–
CN(/N=C/c1ccc(C(F)(F)F)cc1C(=O)O)c1nc(-c2ccccc2Cl)cs1 [Compound 8]	> 100	49	> 100	–
O=C(O)c1ccccc1/C=N/Nc1nc(-c2cc(Cl)ccc2Cl)cs1 [Compound 55]	1.02	5.4	4.06	–
Cc1sc(N(C)/N=C/c2ccccc2C(=O)O)nc1-c1ccccc1 [Compound 12]	0.35	–	–	–
O=C(O)c1ccccc1/C=N/Nc1nc(-c2ccccc2Cl)cs1 [Compound 16]	1.56	11.4	13.2	pEC50 [4]: ~8.00; mice treated (survival) [5]: 50%-100% and 50% and 100%; therapeutic effect in combination with other antiviral drugs [6]: better therapeutic effects; pEC50 [1, 10]: 5.81; pEC50 [1, 11]: 5.81; pEC50 ([2]; BSR-T7/5, 24 h): 4.94; pEC50 [2, 12]: 4.83; pEC50 ([3]; MDCK): 4.88; pEC50 [3, 13]: 4.88
O=C(O)c1cc(F)c(F)cc1/C=N/Nc1nc(-c2ccccc2Cl)cs1 [Compound 23-1]	5.44	–	–	–
CN(/N=C/c1ccccc1C(=O)O)c1nc(-c2ccccc2Cl)cs1 [Compound 1]	0.017	0.018	0.021	weight loss and death caused by viral infection [7]: did not significantly improve; also recorded: could not significantly improve; pEC50 [4]: ~8.00; CC50 [8]: 85800 nM; therapeutic effect in combination with other antiviral drugs [6]: better therapeutic effects; reduction of viral load in lung tissue [9]: more than 100 fold; viral infection-induced weight loss [9]: significantly slowed; pEC50 [1, 10]: 7.77; pEC50 [1, 11]: 7.77; pEC50 ([2]; BSR-T7/5, 24 h): 7.74; pEC50 [2, 12]: 7.74; pEC50 ([3]; MDCK): 7.68; pEC50 [3, 13]: 7.70
O=C(O)c1cc(C(F)(F)F)ccc1/C=N/Nc1nc(-c2ccccc2Cl)cs1 [Compound 8-1]	5.25	1.14	> 100	–
CCC(C)N(/N=C/c1ccccc1C(=O)O)c1nc(-c2ccccc2Cl)cs1 (stereo not drawn) [Compound 5]	> 100	89	45.4	–
Cc1sc(N(C)/N=C/c2ccccc2C(=O)O)nc1-c1ccccc1Cl [Compound 13]	> 100	–	8.27	–
CCCC(C)N(/N=C/c1ccccc1C(=O)O)c1nc(-c2ccccc2Cl)cs1 (stereo not drawn) [Compound 6]	> 100	97	22.2	–
CCN(/N=C/c1ccccc1C(=O)O)c1nc(-c2ccccc2Cl)cs1 [Compound 2]	0.16	0.13	0.28	–
CCCN(/N=C/c1ccccc1C(=O)O)c1nc(-c2ccccc2Cl)cs1 [Compound 3]	2.35	5.42	2.38	–
Cc1ccc(/C=N/N(C)c2nc(-c3ccccc3Cl)cs2)c(C(=O)O)c1 [Compound 9]	0.29	2.26	1.37	–
Cc1ccc(/C=N/N(C)c2nc(-c3ccccc3)c(C)s2)c(C(=O)O)c1 [Compound 11]	> 100	–	–	–
Cc1sc(N/N=C/c2ccccc2C(=O)O)nc1-c1ccccc1 [Compound 12-1]	0.52	–	–	–
O=C(O)c1cc(F)ccc1/C=N/Nc1nc(-c2ccccc2Cl)cs1 [Compound 10-1]	0.11	0.97	0.33	–
